The values below come from US11247965B2 (VenatoRx Pharmaceuticals, Inc., priority 2017, dated 2022).

The subject of data set [1] is HBV replication in HepAD38 cells. Kind of data set: Anti-HBV activity in HepAD38 cells, extracellular HBV DNA by QPCR. In kind it is cell-based, HBV (genotype D, serotype ayw). Particulars: Hepatitis B virus, HePAD38, 168 h, read-out: Anti-HBV EC50, HepAD38 cells, extracellular HBV DNA by QPCR, 7 days of incubation. A digest of the protocol: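 HepAD38 cells (HepG2 with tet-repressible HBV genotype D genome) seeded overnight, tetracycline removed, then treated 7 days with compounds (half-log dilutions, 30 μM–10 nM; 1:200 from DMSO). Supernatant HBV DNA quantified by QPCR against standard curve; % inhibition vs vehicle, EC50 by 4-parameter fit.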

Data set [2] can be described thus: In vitro cytotoxicity, MTT cell viability assay in HepG2 cells. In kind it is cell-based. The following applies: human, Cytotoxicity CC50. In outline: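 Parental HepG2 cells in EMEM + 10% FBS were exposed to compounds (8 half-log dilutions, 30 μM to 1.0 nM) for 7 days at 37 °C, 5% CO2. MTT was then added for 3-4 h, formazan dissolved in DMSO and absorbance read at 492 nm; CC50 came from 4-parameter fits against vehicle controls.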
Background: Tetrazolium assays rely on reduction of a dye to a coloured formazan, in cell work by metabolically active cells.

A value given as a limit tells only on which side of the number the result lay.

For orientation: EC50 means the concentration at which the effect is half-maximal. In general, CC50 refers to the concentration that lowers cell viability or growth by half. Low readings indicate harm at low concentration, high ones better tolerance by the cells. With `O=C(Nc1ccc(F)c(F)c1)c1ccc(F)c(C(F)(F)C(=O)N2CCCC(CO)C2)c1` (centres unmarked) [Example 49, 3-(1,1-difluoro-2-(3-(hydroxymethyl)piperidin-1-yl)-2-oxoethyl)-N-(3,4-difluorophenyl)-4-fluorobenzamide], in data set [1], the EC50 was below 5 µM. The compound further came in with a CC50 at 7 days in data set [2] above 30 µM.
On to `Cc1cc(NC(=O)c2ccc(F)c(C(F)(F)C(=O)N3CCC(O)(CO)CC3)c2)cc(F)c1F` [Example 248, 3-(1,1-difluoro-2-(4-hydroxy-4-(hydroxymethyl)piperidin-1-yl)-2-oxoethyl)-N-(3,4-difluoro-5-methylphenyl)-4-fluorobenzamide], for which the EC50 in data set [1] was below 5 µM. For the same compound, the CC50 at 7 days in data set [2] lay in the range of 5 to 30 µM.
Take `Cc1cc(NC(=O)c2cc(C(F)(F)C(=O)NC(C)C(F)(F)F)n(C)c2)ccc1F` (centres unmarked) [Example 111, 5-(1,1-difluoro-2-oxo-2-((1,1,1-trifluoropropan-2-yl)amino)ethyl)-N-(4-fluoro-3-methylphenyl)-1-methyl-1H-pyrrole-3-carboxamide]: the EC50 in data set [1] is below 5 µM. In data set [2], this compound came in with a CC50 at 7 days above 30 µM.
For the compound `O=C(Nc1ccc(F)c(F)c1)c1ccc(F)c(C(F)(F)C(=O)NC2CCCCC2)c1` [Example 8, 3-(2-(cyclohexylamino)-1,1-difluoro-2-oxoethyl)-N-(3,4-difluorophenyl)-4-fluorobenzamide], in data set [1], the EC50 was in the range of 5 to 30 µM. In addition, in data set [2], the CC50 at 7 days is 5 to 30 µM.
For `CNS(=O)(=O)N1C[C@@H](C)N(C(=O)C(F)(F)c2cc(C(=O)Nc3ccc(F)c(C)c3)ccc2F)[C@@H](C)C1` [Example 291, 3-(2-((2S,6R)-2,6-dimethyl-4-(N-methylsulfamoyl)piperazin-1-yl)-1,1-difluoro-2-oxoethyl)-4-fluoro-N-(4-fluoro-3-methylphenyl)benzamide], in data set [1], the EC50 was below 5 µM. In data set [2], this compound had a CC50 at 7 days of 5 to 30 µM.
Taken in the same sequence, the figures for `Cc1cc(NC(=O)c2ccc(F)c(C(F)(F)C(=O)N3[C@@H]4COC[C@H]3CC(O)C4)c2)ccc1F` (stereo partly drawn) [Example 203, 3-(1,1-difluoro-2-((1R,5S)-7-hydroxy-3-oxa-9-azabicyclo[3.3.1]nonan-9-yl)-2-oxoethyl)-4-fluoro-N-(4-fluoro-3-methylphenyl)benzamide] were below 5 µM and 5 to 30 µM.
As for `Cc1cc(NC(=O)c2cccc(C(F)(F)C(=O)N3[C@@H]4CC[C@H]3C[C@H](O)C4)c2F)ccc1F` [Example 207, 3-(1,1-difluoro-2-((1R,3s,5S)-3-hydroxy-8-azabicyclo[3.2.1]octan-8-yl)-2-oxoethyl)-2-fluoro-N-(4-fluoro-3-methylphenyl)benzamide], in data set [1], the EC50 is below 5 µM. Further, the CC50 at 7 days in data set [2] fell in the range of 5 to 30 µM.
On the same counts, the results for `C[C@H](NC(=O)C(F)(F)c1cc(C(=O)Nc2ccc(F)c(Cl)c2)cn1C)C(F)(F)F` [Example 140, (S)-N-(3-chloro-4-fluorophenyl)-5-(1,1-difluoro-2-oxo-2-((1,1,1-trifluoropropan-2-yl)amino)ethyl)-1-methyl-1H-pyrrole-3-carboxamide] are below 5 µM and above 30 µM.
Taken in the same sequence, the figures for `Cc1cc(NC(=O)c2ccc(F)c(C(F)(F)C(=O)N3[C@@H]4CC[C@H]3C[C@@H](N)C4)c2)ccc1F` [Example 226, 3-(2-((1R,3r,5S)-3-amino-8-azabicyclo[3.2.1]octan-8-yl)-1,1-difluoro-2-oxoethyl)-4-fluoro-N-(4-fluoro-3-methylphenyl)benzamide] were below 5 µM and 5 to 30 µM.
Taken in the same sequence, the figures for `Cc1cc(NC(=O)c2ccc(C(F)(F)C(=O)NC(C)(C)C)s2)ccc1F` [Example 81, 5-(2-(tert-butylamino)-1,1-difluoro-2-oxoethyl)-N-(4-fluoro-3-methylphenyl)thiophene-2-carboxamide] were 5 to 30 µM and above 30 µM.
With `O=C(Nc1ccnc(Cl)c1)c1ccc(F)c(C(F)(F)C(=O)N2CCC(O)C(F)(F)C2)c1` (centres unmarked) [Example 195, N-(2-chloropyridin-4-yl)-3-(2-(3,3-difluoro-4-hydroxypiperidin-1-yl)-1,1-difluoro-2-oxoethyl)-4-fluorobenzamide], in data set [1], the EC50 is below 5 µM. The compound also gave a CC50 at 7 days in data set [2] below 5 µM.
Turning to `Cc1cc(NC(=O)c2ccc(F)c(C(F)(F)C(=O)N3CC=C(B(O)O)CC3)c2)ccc1F` [Example 154, (1-(2,2-difluoro-2-(2-fluoro-5-((4-fluoro-3-methylphenyl)carbamoyl)phenyl)acetyl)-1,2,3,6-tetrahydropyridin-4-yl)boronic acid], the EC50 in data set [1] was below 5 µM. This compound gave a CC50 at 7 days in data set [2] of 5 to 30 µM.
On the same counts, the results for `Cc1cc(NC(=O)c2cc(C(O)C(=O)NC(C)(C)C)cn2C)ccc1F` (centres unmarked) [Example 121, 4-(2-(tert-butylamino)-1-hydroxy-2-oxoethyl)-N-(4-fluoro-3-methylphenyl)-1-methyl-1H-pyrrole-2-carboxamide] are below 5 µM and above 30 µM.
Taken in the same sequence, the figures for `Cc1cc(NC(=O)c2ccc(F)c(C(F)(F)C(=O)N3[C@@H]4CCC[C@H]3C[C@@H](O)C4)c2)ccc1F` [Example 216, 3-(1,1-difluoro-2-((1R,3r,5S)-3-hydroxy-9-azabicyclo[3.3.1]nonan-9-yl)-2-oxoethyl)-4-fluoro-N-(4-fluoro-3-methylphenyl)benzamide] were below 5 µM and 5 to 30 µM.
With `Cc1cc(NC(=O)c2ccc(F)c(C(F)(F)C(=O)N3C[C@@H](C)N[C@@H](C)C3)c2)ccc1F` [Example 296, 3-(2-((3R,5S)-3,5-dimethylpiperazin-1-yl)-1,1-difluoro-2-oxoethyl)-4-fluoro-N-(4-fluoro-3-methylphenyl)benzamide], the EC50 in data set [1] was below 5 µM. The same compound showed a CC50 at 7 days in data set [2] of 5 to 30 µM.
Consider `Cc1cc(NC(=O)c2ccnc(C(F)(F)C(=O)N3CCC(O)CC3)c2)ccc1F` [Example 243, 2-(1,1-difluoro-2-(4-hydroxypiperidin-1-yl)-2-oxoethyl)-N-(4-fluoro-3-methylphenyl)isonicotinamide], for which, in data set [1], the EC50 fell in the range of 5 to 30 µM. The same compound registered a CC50 at 7 days in data set [2] above 30 µM.
As to `N#Cc1cc(NC(=O)c2ccc(F)c(C(F)(F)C(=O)N3CCC(O)(CO)CC3)c2)ccc1F` [Example 194, N-(3-cyano-4-fluorophenyl)-3-(1,1-difluoro-2-(4-hydroxy-4-(hydroxymethyl)piperidin-1-yl)-2-oxoethyl)-4-fluorobenzamide], the EC50 in data set [1] was below 5 µM. In data set [2], this compound had a CC50 at 7 days of 5 to 30 µM.
Regarding `Cc1cc(NC(=O)c2ccc(F)c(C(F)(F)C(=O)N3[C@@H]4CC[C@H]3C[C@@H](O)C4)c2)cc(F)n1` [Example 224, 3-(1,1-difluoro-2-((1R,3r,5S)-3-hydroxy-8-azabicyclo[3.2.1]octan-8-yl)-2-oxoethyl)-4-fluoro-N-(2-fluoro-6-methylpyridin-4-yl)benzamide], the EC50 in data set [1] was below 5 µM. For the same compound, the half-maximal cytotoxic concentration (CC50) at 7 days in data set [2] was below 5 µM.
As to `CN(CCCO)C(=O)C(F)(F)c1cc(C(=O)Nc2ccc(F)c(F)c2)ccc1F` [Example 47, 3-(1,1-difluoro-2-((3-hydroxypropyl)(methyl)amino)-2-oxoethyl)-N-(3,4-difluorophenyl)-4-fluorobenzamide], the EC50 in data set [1] is 5 to 30 µM. The CC50 at 7 days in data set [2] is above 30 µM.
